Data from the NIST ThermoML archive (doi:10.1021/je2013704).

Assay: mn = molality of the nth substance listed, in mol/kg
Details: Liquid, Vibrating tube method

[Cl-].[K+] [potassium chloride] + O
mass density [kg/m3]
Details | 900 kPa | 9900 kPa | 19900 kPa | 29900 kPa | 39900 kPa | 49900 kPa | 59900 kPa | 68400 kPa
372.99 K, m1 = 3.15 | – | – | – | – | – | – | – | 1108.37
372.99 K, m1 = 4.49 | – | – | – | – | – | – | – | 1150.77
397.97 K, m1 = 1.06 | 986.31 | 990.53 | 995.11 | 999.53 | 1003.82 | 1008.02 | 1012.1 | 1015.46
397.97 K, m1 = 3.15 | 1065.9 | 1069.71 | 1073.82 | 1077.73 | 1081.65 | 1085.49 | 1089.26 | 1092.3
397.97 K, m1 = 4.49 | 1109.9 | 1113.48 | 1117.4 | 1121.12 | 1124.86 | 1128.56 | 1132.08 | 1135
422.94 K, m1 = 1.06 | 965.57 | 970.25 | 975.13 | 979.97 | 984.63 | 989.18 | 993.52 | 997.11
422.94 K, m1 = 3.15 | 1046.73 | 1050.87 | 1055.23 | 1059.51 | 1063.66 | 1067.79 | 1071.77 | 1075
422.94 K, m1 = 4.49 | 1091.46 | 1095.41 | 1099.54 | 1103.53 | 1107.49 | 1111.34 | 1115.08 | 1118.18
447.94 K, m1 = 1.06 | 942.89 | 948.08 | 953.62 | 958.88 | 963.97 | 968.88 | 973.66 | 977.57
447.94 K, m1 = 3.15 | 1025.62 | 1030.11 | 1034.96 | 1039.57 | 1044.09 | 1048.45 | 1052.77 | 1056.27
447.94 K, m1 = 4.49 | 1071.39 | 1075.5 | 1080.06 | 1084.38 | 1088.62 | 1092.74 | 1096.73 | 1100.1
472.96 K, m1 = 1.06 | – | 923.68 | 929.93 | 935.86 | 941.62 | 947.07 | 952.36 | 956.79
472.96 K, m1 = 3.15 | – | 1007.94 | 1013.25 | 1018.38 | 1023.39 | 1028.19 | 1032.84 | 1036.57
472.96 K, m1 = 4.49 | – | 1054.54 | 1059.47 | 1064.17 | 1068.85 | 1073.32 | 1077.68 | 1081.18
